Measured values as given in PMC11969438 (Inorganic Chemistry Frontiers, 2025).

Experiments:
[1] = Cytokine and chemokine levels in plasma of treated animals, Luminex; assay type: in vivo, CT-26-bearing BALB/c mice; details: 24 h after second dose
Protocol: Next, the ProcartaPlex (96-well) multiplex assay panel was performed according to the manufacturer's recommendations. In brief, the capture bead mix was incubated with test samples (undiluted SN or mouse plasma) or standard mix overnight. The SN of three independent experiments or the plasma of four animals per treatment group was loaded onto the multiplex assay plate. Next, biotinylated detection antibody mix and Streptavidin-PE were added to the plate. Following the recommended washing steps, the samples were incubated in a reading buffer and were measured using a Luminex xMAP platform (Bio-Plex MAGPIX Multiplex Reader; Bio-Rad Laboratories) and analyzed using xPONENT software.
(§1) Tumor size was determined daily via manual caliper measurement. […] Animals were euthanized via cervical dislocation.

[2] = Body weight of treated animals; assay type: in vivo, CT-26-bearing BALB/c mice; details: peritumoral application
Protocol: as §1

[3] = Hematological analysis after long-term treatment; details: 72 h after the fourth dose
Protocol: Mice were kept in groups of four per cage with sterilized paper-based environmental enrichment and food and water ad libitum, under pathogen-free conditions and a controlled environment with a 12 h light–dark cycle. Syngeneic models of colorectal carcinoma were generated via subcutaneous injection of CT-26 cells (0.5 × 10^6 cells in 50 μL of serum-free RPMI-1640 medium) into the right flank of 8–12 weeks old BALB/c mice. […] All animals were euthanized 24 h after the second dose. […] To determine the anticancer efficacy of the investigated compounds, treatment started 4 d after tumor implantation, when all tumors were measurable (>25 mm^3) using a twice-weekly treatment scheme for two weeks. Tumor size was determined daily via manual caliper measurement. The tumor volume was calculated as tumor volume = (length × diameter × diameter)/2. The overall condition, shape, and activity of the animals were assessed daily. Peripheral blood was collected from the submandibular vein in K3E K3EDTA tubes (Greiner Bio-One; Kremsmünster, AUT) on ice and was analyzed for hematological parameters (red blood cells (RBCs), hemoglobin (HGB), hematocrit (HCT), red cell distribution width (RDW), mean corpuscular volume (MCV), white blood cells (WBCs), lymphocytes (LYM), monocytes (MO), granulocytes (GRA), and platelets (PLT) using a Vet ABC hematology analyzer (scil Animal Care GmbH, Viernheim, Germany). EDTA-blood was centrifuged (900g, 10 min) twice and the supernatant (EDTA-plasma) was stored at −20 °C for subsequent cytokine/chemokine analysis using a Luminex detection platform. All animal experiments were performed with humane endpoints based on Federation of European Laboratory Animal Science Associations guidelines and according to the regulations of the Ethics Committee for the Care and Use of Laboratory Animals at the Medical University Vienna (proposal number BMBWF 2023–0.122.324). Animals were euthanized upon reaching a tumor volume of >1500 mm^3, a loss in body weight (>20%), tumor ulceration or other indications of deteriorated health. Animals were euthanized via cervical dislocation.

HCT116 cells = assay: MTT-based cell viability assay, 72 h; set-up: species or system human; details: without AA
Protocol: Cell models were seeded (2–2.5 × 10^3 cells per well) in 96-well plates. After 24 h of recovery, the compounds were applied at the concentrations indicated in triplicate. Cell viability was determined after 72 h of continuous drug incubation using an MTT-based cell viability assay (EZ4U, Biomedica, Vienna, Austria) according to the manufacturer's recommendations. Absorbance was measured at 450 nm (vs. 620 nm as reference) using a multimode microplate reader (Tecan Spark, Zurich, Switzerland). Half-maximal inhibitory concentrations (IC50 values) were derived via interpolation from dose–response curves, modeled with the four-parameter logistic (4PL) nonlinear regression model in GraphPad Prism (La Jolla, CA, USA) from at least three independent experiments.

SMILES | plasma IFN-β, IL-6 and M-CSF [1] | effect on body weights [2] | platelet counts (PLT) / thrombocytopenia [3] | absolute counts of white blood cells and subpopulations ([3]; i.v. twice a week for two weeks) | IC50 (HCT116 cells) [nM]
COCCOCCOCCOCCNC(=O)[O][Pt-2]12([O]C(=O)CCC(=O)c3cc4cc(OC)c(OC)cc4s3)([NH2+][C@@H]3CCCC[C@H]3[NH2+]1)[O]C(=O)C(=O)[O]2 [Ox-MSA-PEG-Ca, (OC-6-34)-[(1R,2R)-1,2-cyclohexanediamino]-oxalato-[4-(5,6-dimethoxybenzo[b]thiophen-2-yl)-4-oxobutylcarboxylato]-[3,6,9,12-tetraoxatridecan-1-amino]platinum(IV)] | highest activations | without negative effects on body weights | – | – | –
O=C1[O][Pt]2([NH][C@@H]3CCCC[C@H]3[NH]2)[O]C1=O [oxaliplatin, reference compound] | – | – | distinctly reduced platelet counts | massively lowered | 800
